Results as given in patent US12414983B2, “CD200AR ligands for cancer immunotherapy” (REGENTS OF THE UNIVERSITY OF MINNESOTA, priority 2019, dated 2025).
“Also recorded” adds a separate entry of the source.

Tests used:
Format in all cases: cell-based
Splenocytes = Splenocytes pulsed with CD200 or PD-L1 +/- mCD200AR-L, flow cytometry for CTLA4 and PD-L1
Method: FIGS. 14A-14C. […] Splenocytes were pulsed with CD200, PD-L1+/−mCD200AR-L. Cells were analyzed by flow cytometry for the (FIG. 14A) CD4^+CTLA4^+, (FIG. 14B) CD8^+CTLA4^+or (FIG. 14C) CD11b^+PD-L1^+ populations. Error bars are representative of n=2 *P<0.005, **P<0.0001.
We propose that soluble CD200 and PD-L1 inhibit T cell activation through multiple checkpoints (FIG. 10). Therefore, the effect of multiple suppressive molecules (CD200 and PD-L1) on T cell inhibition was investigated. […] In addition, following PD-L1 treatment, an upregulation of PD-L1 on CD11b and an upregulation of CTLA4 was observed on T cells. Being CTLA4 and PD-L1 propagate separate inhibitory signals, it was hypothesized that PD-L1 inhibits T cell activation through 1) direct CD200 and PD-L1 on T cells and 2) direct PD-L1 (on APCs)/PD-I (on […]) producing cytokines upregulating CTLA4, which would explain the enhanced responses seen in combination α-PD-1 and α-CTLA4 treatments. However, neither of them inhibit CD200 effect on T cells.
We next looked at the effects of CD200AR-L on T cell inhibition. […] Being CTLA4 and PD-L1 propagate separate inhibitory signals, we hypothesize that PD-L1 inhibits T cell activation through two separate mechanisms, 1) through direct PD-L1 (on APCs)/PD-I (on T cells) interactions and through cytokine production following PD-L1 binding to the PD-1 on CD11b cell, which would explain the enhanced responses seen in combination α-PD-1 and α-CTLA4 treatments.

Murine CD11b cells = assay: PMA-activated murine CD11b cells treated with PD-L1 +/- murine CD200AR-L, cytokines; settings: PD-L1 with or without murine CD200AR-L, 48 hr
From the text: FIGS. 8A-8C. CD200AR-L pulses overpowers the suppressive PD-L1.

Murine splenocytes = assay: Splenocytes activated with PMA +/- PD-L1 or PD-L1+CD200AR-L, cytokines; settings: 48 hr
Method: FIGS. 11A-11C. […] Murine splenocytes were activated with PMA, +/−PD-L1 or PD-L1+mCD200AR-L. Following 48 hr incubation, supernatants were analyzed for (FIG. 11A) TNFα (FIG. 11B) IL-4 or (FIG. 11C) IL-5. Error bars are representative of n=3; *P<0.005.
The CD200 and PD-1 pathways crosstalk, allowing CD200AR-L to override the suppressive PD-L1. […] To evaluate the effect of CD200AR-L on PD-1/PD-L1, splenocytes were activated with PMA+/−PD-L1 or PD-L1+CD200AR-L, and supernatants were analyzed for TNFα, IL-4 and IL-5 production (FIG. 11A-11C). As observed with the CD200 protein (FIG. 11B), PD-L1 induced an immune suppressed environment as measured by cytokine production; however, PD-L1 reduced the production of TNFα, IL-4 and IL-5 induced by PMA, which was restored by the addition of CD200AR-L. These experiments led to the hypothesis that the CD200 and PD-1 pathways are connected.

[1] = splenocytes pulsed with CD200 or PD-L1

PD-L1: programmed cell death ligand 1, suppressive protein used to pulse cells
CTLA4 on CD4 cells (Splenocytes; [1]): upregulated | CTLA4 on CD8 cells (Splenocytes; [1]): upregulated | PD-L1 on CD11b cells (Splenocytes; [1]): upregulation; also recorded: upregulated | CTLA4 on T cells (Splenocytes; total splenocytes, following PD-L1 treatment): upregulation | activation of CD11b cells (TNFalpha, IL4, IL5 in supernatant) (Murine CD11b cells): suppressed the activation | production of TNFα, IL-4 and IL-5 (Murine splenocytes): reduced
